# Test results as given in ChEMBL document CHEMBL1135668, “Design, synthesis, structure-activity relationships, and molecular modeling studies of 2,3-diaryl-1,3-thiazolidin-4-ones as potent anti-HIV agents” (J Med Chem, 2002).
# The source made the active and inactive calls. No cut-off for these calls is given here.
# Assays:
# [1] = system: Human immunodeficiency virus 1; assay: Anti-HIV-1 activity against mutant HIV-1 strain (100Leu-Ile) in CEM cells; type: functional, organism-based; conditions: Human immunodeficiency virus 1, CCRF-CEM
# [2] = system: Human immunodeficiency virus 1; assay: Anti-HIV-1 activity against mutant HIV-1 strain (103Lys-Asn) in CEM cells; type: functional, organism-based; conditions: Human immunodeficiency virus 1, CCRF-CEM
# [3] = system: Human immunodeficiency virus 1; assay: Anti-HIV-1 activity against mutant HIV-1 strain (138Glu-Lys) in CEM cells; type: functional, organism-based; conditions: Human immunodeficiency virus 1, CCRF-CEM
# [4] = system: Human immunodeficiency virus 1; assay: Anti-HIV-1 activity against mutant HIV-1 strain(188 Tyr-His) in CEM cells; type: functional, organism-based; conditions: Human immunodeficiency virus 1, CCRF-CEM
# [5] = system: Human immunodeficiency virus 1; assay: Anti-HIV-1 activity against mutant HIV-1 strain (HIV-1IIIB) in CEM cells; type: functional, organism-based; conditions: Human immunodeficiency virus 1, CCRF-CEM
# [6] = system: Human immunodeficiency virus 1; assay: Cytotoxic concentration (anti-HIV activity) required to reduce […] by 50% in MT-4 cells; type: functional; conditions: Human immunodeficiency virus 1, MT4
# [7] = system: Human immunodeficiency virus 1; assay: Effective concentration (anti-HIV activity) required to reduce HIV-1 induced cytopathic effect by 50% in MT-4 cells; type: functional, organism-based; conditions: Human immunodeficiency virus 1, MT4
# [8] = target: Human immunodeficiency virus type 1 reverse transcriptase (Human immunodeficiency virus 1, UniProt Q72547); assay: HIV-1 reverse transcriptase (RT) activity using Poly (rC)/oligo (dG) as template/primer and [3H]dGTP
# [9] = system: Human immunodeficiency virus 1; assay: Selectivity index as the ratio of CC50 to that of EC50 value in MT cells; type: functional
# [10] = system: Human immunodeficiency virus 1; assay: Effective concentration (anti-HIV activity) required to reduce HIV-1 induced cytopathic effect by 50% in MT-4 cells; NA is Not Active.; type: functional, organism-based; conditions: mt4
# [11] = system: Human immunodeficiency virus 1; assay: Concentration required to reduced HIV-1-induced cytopathic effect by 50%in CEM cells; type: functional; conditions: Human immunodeficiency virus 1, CCRF-CEM
# [12] = system: Human immunodeficiency virus 1; assay: Effective concentration (anti-HIV activity) required to reduce HIV-1 induced cytopathic effect by 50%in CEM cells; type: functional, organism-based; conditions: Human immunodeficiency virus 1, CCRF-CEM
# [13] = Selectivity index as the ratio of CC50 to that of EC50 value in CEM cells; type: functional, CCRF-CEM
# [14] = system: Human immunodeficiency virus 1; assay: (§1) Concentration required to reduced HIV-1-induced cytopathic effect by 50% in CEM cells; type: functional; conditions: Human immunodeficiency virus 1, CCRF-CEM
# [15] = system: Human immunodeficiency virus 1; assay: Effective concentration (anti-HIV activity) required to reduce HIV-1 induced cytopathic effect by 50% in MT-4 cells; NA is Not Active; type: functional, organism-based; conditions: mt4
# [16] = target: Human immunodeficiency virus type 1 reverse transcriptase (Human immunodeficiency virus 1) (UniProt Q72547); assay: HIV-1 reverse transcriptase (RT) enzymatic activity was evaluated using Poly (rC)/oligo (dG) as template/primer and [3H]dGTP as radio labelled substrate
# [17] = system: Human immunodeficiency virus 1; assay: Anti-HIV-1 activity against mutant HIV-1 strain(181 Tyr-Cys) in CEM cells; type: functional, organism-based; conditions: Human immunodeficiency virus 1, CCRF-CEM
# [18] = system: Human immunodeficiency virus 1; assay: Concentration required to reduce CEM cell viability by 50%; conditions: Human immunodeficiency virus 1, CCRF-CEM
# [19] = Selectivity index as the ratio of CC50 to that of EC50 value.; type: functional
# [20] = system: Human immunodeficiency virus 1; assay: as §1; type: functional, organism-based; conditions: Human immunodeficiency virus 1, CCRF-CEM
# [21] = system: Human immunodeficiency virus 1; assay: Concentration required to reduce CEM cell viability by 50%; conditions: Human immunodeficiency virus 1, CCRF-CEM; remark: listed apart in the source
# [22] = system: Human immunodeficiency virus 1; assay: Effective concentration (anti-HIV activity) required to reduce HIV-1 induced cytopathic effect by 50%in CEM cells; NA is Not Active.; type: functional, organism-based; conditions: ccrf-cem
# [23] = target: Human immunodeficiency virus type 1 reverse transcriptase (Human immunodeficiency virus 1) (UniProt Q72547); assay: HIV-1 reverse transcriptase (RT) enzymatic activity was evaluated using Poly (rC)/oligo (dG) as template/primer and [3H]dGTP as radio labeled substrate;NA is not active.
SMILES,CC50 [6] [µM],EC50 [7] [µM],IC50 [8] [µM],Selectivity index [9],EC50 [12] [µM],Selectivity index [13],also measured
Cc1cccc(N2C(=O)CSC2c2c(Cl)cccc2Cl)n1 (stereo unspecified),285,0.044,2.24,6470,–,–,EC50 [1]: 0.15 µM; EC50 [2]: ≥ 60 µM; EC50 [3]: 0.117 µM; EC50 [4]: 16.2 µM; EC50 [5]: 0.073 µM
O=C1CSC(c2c(F)cccc2Cl)N1c1cccc(Br)n1 (stereo unspecified),30.7,0.064,–,484,–,–,–
O=C1CSC(c2c(Cl)cccc2Cl)N1c1ccccc1 (stereo unspecified),38.1,0.401,–,95,–,–,–
O=C1CSC(c2c(Cl)cccc2Cl)N1c1ccncc1 (stereo unspecified),10,–,–,–,–,–,EC50 [10]: Not Active
O=C1CSC(c2c(Cl)cccc2Cl)N1c1ccccn1 (stereo unspecified),38.5,0.178,–,216.3,–,–,–
O=C1CSC(c2c(Cl)cccc2Cl)N1c1cccc(Br)n1 (stereo unspecified),67.4,0.272,–,248,0.173,>1431,CC50 [11]: > 248 µM
Cc1ccnc(N2C(=O)CSC2c2c(F)cccc2Cl)c1 (stereo unspecified),33.9,0.099,4.12,343,0.108,525,CC50 [14]: 56.7 µM
O=C1CSC(c2c(Cl)cccc2Cl)N1c1cccnc1 (stereo unspecified),23.4,–,–,–,–,–,EC50 [15]: Not Active
Cc1cccnc1N1C(=O)CSC1c1c(Cl)cccc1Cl (stereo unspecified),42.6,–,–,–,–,–,EC50 [10]: Not Active
O=C1CSC(c2c(Cl)cccc2Cl)N1c1ccc(Br)cn1 (stereo unspecified),28.2,1.51,56.6,18.6,1.31,20,CC50 [14]: 26 µM
O=C1CSC(c2c(F)cccc2F)N1c1cccc(Br)n1 (stereo unspecified),32,0.03,–,1066,0.03,>8980,EC50 [1]: 0.94 µM; EC50 [2]: > 11 µM; EC50 [3]: 0.073 µM; EC50 [4]: 1.02 µM; EC50 [5]: 0.026 µM; IC50 [16]: 0.91 µM; EC50 [17]: 1.88 µM; CC50 [18]: > 269 µM
Cc1cccnc1N1C(=O)CSC1c1c(F)cccc1F (stereo unspecified),> 319,53.5,–,>6,–,–,–
O=C1CSC(c2c(F)cccc2Cl)N1c1ccccn1 (stereo unspecified),41.7,0.278,–,150,0.242,791,CC50 [11]: 191 µM
O=C1CSC(c2c(F)cccc2F)N1c1ccccn1 (stereo unspecified),> 427,0.855,–,>500,–,–,–
O=C1CSC(c2c(F)cccc2F)N1c1cccnc1 (stereo unspecified),> 427,95.1,–,–,–,–,Selectivity index [19]: > 4.5
Cc1ccc(N2C(=O)CSC2c2c(Cl)cccc2Cl)nc1 (stereo unspecified),24.9,1.41,42.4,17.7,1.32,24,EC50 [20]: 31.2 µM

SMILES,CC50 [6] [µM],EC50 [7] [µM],IC50 [8] [µM],Selectivity index [9],EC50 [12] [µM],Selectivity index [13],also measured
O=C1CSC(c2c(F)cccc2F)N1c1ccc(Cl)cn1 (stereo unspecified),29.8,7.19,67,4.2,4.13,11,CC50 [21]: 47.1 µM
Cc1cc(C)nc(N2C(=O)CSC2c2c(F)cccc2F)c1 (stereo unspecified),43.4,0.059,4.12,735,0.078,>=800,CC50 [14]: ≥ 62.4 µM
Cc1ccnc(N2C(=O)CSC2c2c(Cl)cccc2Cl)c1 (stereo unspecified),> 368,0.147,–,>2500,–,–,–
Cc1ccc(N2C(=O)CSC2c2c(F)cccc2F)nc1 (stereo unspecified),202,5.13,–,39.3,–,–,–
Cc1ccnc(N2C(=O)CSC2c2c(F)cccc2F)c1 (stereo unspecified),242,0.248,2.84,976,–,–,–
O=C1CSC(c2c(Cl)cccc2Cl)N1c1ccc(Cl)cn1 (stereo unspecified),19.2,1.78,–,11,1.86,17,CC50 [14]: 31.1 µM
Cc1cc(C)nc(N2C(=O)CSC2c2c(Cl)cccc2Cl)c1 (stereo unspecified),64.1,0.09,–,712,0.13,>=2178,CC50 [21]: ≥ 283 µM
O=C1CSC(c2c(F)cccc2F)N1c1ccncc1 (stereo unspecified),33.9,–,–,–,–,–,EC50 [10]: Not Active; EC50 [22]: Not Active; IC50 [23]: inactive; CC50 [21]: 284 µM
c1ccc2[nH]c(-c3cscn3)nc2c1 [THIABENDAZOLE],19.2,0.352,14.6,54.5,1.1,45,EC50 [1]: 3.12 µM; EC50 [2]: 15.6 µM; EC50 [3]: 1.73 µM; EC50 [4]: 4.16 µM; EC50 [5]: 1.39 µM; CC50 [14]: 50 µM; EC50 [17]: 13.8 µM
Cc1cccc(N2C(=O)CSC2c2c(F)cccc2F)n1 (stereo unspecified),126,0.082,2.9,1536,–,–,EC50 [1]: 0.75 µM; EC50 [2]: 35.9 µM; EC50 [3]: 0.39 µM; EC50 [4]: ≥ 13 µM; EC50 [5]: 0.117 µM; EC50 [17]: ≥ 13 µM
O=C1CSC(c2c(F)cccc2Cl)N1c1ccc(Br)cn1 (stereo unspecified),30.7,1.24,–,25,–,–,–
O=C1CSC(c2c(F)cccc2Cl)N1c1ccc(Cl)cn1 (stereo unspecified),29.4,2.13,–,–,–,–,Selectivity index [19]: 14
Cc1cc(C)nc(N2C(=O)CSC2c2c(F)cccc2Cl)c1 (stereo unspecified),41.6,0.042,–,986,–,–,–
Cc1cccc(N2C(=O)CSC2c2c(F)cccc2Cl)n1 (stereo unspecified),31.9,0.053,2.85,601,0.04,1108,CC50 [11]: 44.3 µM
O=C1CSC(c2c(F)cccc2F)N1c1ccc(Br)cn1 (stereo unspecified),36.1,4.85,61.4,7.4,2.5,18,CC50 [21]: 45.8 µM
